Assay results published in patent US20260108546A1 (ELI LILLY AND COMPANY, priority 2024, published 2026).

Molecular target: T1, hGIP-R (Homo sapiens, UniProt P48546)
T1 construct: expressed in transfected cells; host or cells: HEK-293 clonal cell lines
T1 sequence (P48546 22-466): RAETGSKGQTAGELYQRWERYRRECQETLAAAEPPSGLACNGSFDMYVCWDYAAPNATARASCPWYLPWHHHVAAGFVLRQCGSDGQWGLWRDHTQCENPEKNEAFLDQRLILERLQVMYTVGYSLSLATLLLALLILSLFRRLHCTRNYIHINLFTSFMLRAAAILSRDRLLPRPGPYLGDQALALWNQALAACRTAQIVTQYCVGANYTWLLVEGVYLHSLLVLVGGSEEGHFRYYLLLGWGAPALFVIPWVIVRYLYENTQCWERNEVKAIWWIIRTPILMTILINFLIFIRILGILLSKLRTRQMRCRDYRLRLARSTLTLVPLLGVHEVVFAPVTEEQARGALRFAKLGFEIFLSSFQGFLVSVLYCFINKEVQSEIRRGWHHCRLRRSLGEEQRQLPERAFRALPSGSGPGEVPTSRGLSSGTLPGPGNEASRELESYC
Experiment: Functional hGIP-R Assay (cAMP formation, HTRF)
Format: cell-based
Settings: for Emax: cAMP efficacy, percent of maximal response to GIP(1-42)OH, 37° C., 0.1% bovine casein, arithmetic mean ± SEM; for EC50: cAMP potency, HEK-293 cells expressing hGIP-R, incubated at 37° C. in the presence of 0.1% bovine casein, geometric mean, read-out: Human GIP-R EC50, nM (SEM, n)
Procedure, shortened: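 HEK-293 cells expressing hGIP-R were given a 20-point compound series in DMEM with 0.1% casein, 250 μM IBMX, 1% DMSO, 30 min at 37 °C. cAMP was read by HTRF against a standard curve, expressed as % of human GIP (1-42) OH maximum; EC50 and Emax came from four-parameter fits.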

| Structure (SMILES) | Emax | EC50 |
| --- | --- | --- |
| CN(C(=O)[C@H]1C[C@@H]1c1ccc(-c2cnc3nn(C(F)(F)F)cc3c2)cc1)[C@H](Cc1cnn(C)c1)C(=O)NC(C)(C)Cn1nc(C(F)(F)F)cc1-c1ccc(=O)n(C)c1 [Example 89, (1S,2S)-N-Methyl-N-((R)-1-((2-methyl-1-(5-(1-methyl-6-oxo-1,6-dihydropyridin-3-yl)-3-(trifluoromethyl)-1H-pyrazol-1-yl)propan-2-yl)amino)-3-(1-methyl-1H-pyrazol-4-yl)-1-oxopropan-2-yl)-2-(4-(2-(trifluoromethyl)-2H-pyrazolo[3,4-b]pyridin-5-yl)phenyl)cyclopropane-1-carboxamide] | 32.3% | 152 nM |
| COCc1cn2cc(-c3ccc([C@H]4C[C@@H]4C(=O)N(C)[C@H](Cc4cnn(C)c4)C(=O)NC(C)(C)Cn4nc(C(F)(F)F)cc4-c4ccc(=O)n(C)c4)cc3)cnc2n1 [Example 90, (1S,2S)-2-(4-(2-(Methoxymethyl)imidazo[1,2-a]pyrimidin-6-yl)phenyl)-N-methyl-N-((R)-1-((2-methyl-1-(5-(1-methyl-6-oxo-1,6-dihydropyridin-3-yl)-3-(trifluoromethyl)-1H-pyrazol-1-yl)propan-2-yl)amino)-3-(1-methyl-1H-pyrazol-4-yl)-1-oxopropan-2-yl)cyclopropane-1-carboxamide] | 120% | 45.5 nM |
| Cn1cc(C[C@@H](NC(=O)[C@H]2C[C@@H]2c2ccc(-c3cnc4nn(C)cc4c3)cc2)C(=O)NC(C)(C)Cn2nc(C(F)(F)F)cc2-c2cn[nH]n2)cn1 [Example 92, (1S,2S)-N—((R)-1-((1-(5-(2H-1,2,3-Triazol-4-yl)-3-(trifluoromethyl)-1H-pyrazol-1-yl)-2-methylpropan-2-yl)amino)-3-(1-methyl-1H-pyrazol-4-yl)-1-oxopropan-2-yl)-2-(4-(2-methyl-2H-pyrazolo[3,4-b]pyridin-5-yl)phenyl)cyclopropane-1-carboxamide] | 126 ± 1.93% | 47.1 nM |
| Cn1cc(C[C@H](C(=O)NC(C)(C)Cn2nc(C(F)(F)F)cc2-c2ccc(=O)n(C)c2)N2CC[C@@]3(C[C@@H]3c3ccc(-c4cnc5nn(C)cc5c4)cc3)C2=O)cn1 [Example 98, (R)—N-(2-Methyl-1-(5-(1-methyl-6-oxo-1,6-dihydropyridin-3-yl)-3-(trifluoromethyl)-1H-pyrazol-1-yl)propan-2-yl)-3-(1-methyl-1H-pyrazol-4-yl)-2-((1R,3R)-1-(4-(2-methyl-2H-pyrazolo[3,4-b]pyridin-5-yl)phenyl)-4-oxo-5-azaspiro[2.4]heptan-5-yl)propanamide] | 110 ± 3.22% | 35.5 nM |
| Cc1cn2cc(-c3ccc([C@H]4C[C@@]45CCN([C@H](Cc4cnn(C(F)F)c4)C(=O)NC(C)(C)Cn4nc(C(F)(F)F)cc4-c4cc(F)c(=O)n(C)c4)C5=O)c(F)c3)cnc2n1 [Example 100, (2R)-3-(1-(Difluoromethyl)-1H-pyrazol-4-yl)-N-(1-(5-(5-fluoro-1-methyl-6-oxo-1,6-dihydropyridin-3-yl)-3-(trifluoromethyl)-1H-pyrazol-1-yl)-2-methylpropan-2-yl)-2-((1S,3R)-1-(2-fluoro-4-(2-methylimidazo[1,2-a]pyrimidin-6-yl)phenyl)-4-oxo-5-azaspiro[2.4]heptan-5-yl)propanamide] | 70.9 ± 1.67% | 3.47 nM |
| Cn1cc2cc(-c3ccc([C@H]4C[C@@]45CCN([C@H](Cc4cnn(C(F)F)c4)C(=O)NC(C)(C)Cn4nc(C(F)(F)F)cc4-c4ccc(=O)n(C)c4)C5=O)c(F)c3)cnc2n1 [Example 117, (2R)-3-(1-(Difluoromethyl)-1H-pyrazol-4-yl)-2-((1S,3R)-1-(2-fluoro-4-(2-methyl-2H-pyrazolo[3,4-b]pyridin-5-yl)phenyl)-4-oxo-5-azaspiro[2.4]heptan-5-yl)-N-(2-methyl-1-(5-(1-methyl-6-oxo-1,6-dihydropyridin-3-yl)-3-(trifluoromethyl)-1H-pyrazol-1-yl)propan-2-yl)propanamide] | 56 ± 3.91% | 4.39 nM |

Further compounds by falling EC50, results first:

| Emax | EC50 | Structure (SMILES) |
| --- | --- | --- |
| 104 ± 4.57% | 169 nM | Cn1cc(C[C@@H](NC(=O)[C@H]2C[C@@H]2c2ccc(-c3cnc4nn(C)cc4c3)cc2)C(=O)NC(C)(C)Cn2nc(C(F)(F)F)cc2-c2cnn3c2CNCC3)cn1 [Example 96, (1S,2S)-N—((R)-1-((2-methyl-1-(5-(4,5,6,7-tetrahydropyrazolo[1,5-a]pyrazin-3-yl)-3-(trifluoromethyl)-1H-pyrazol-1-yl)propan-2-yl)amino)-3-(1-methyl-1H-pyrazol-4-yl)-1-oxopropan-2-yl)-2-(4-(2-methyl-2H-pyrazolo[3,4-b]pyridin-5-yl)phenyl)cyclopropane-1-carboxamide] |
| 116% | 89 nM | CN(C(=O)[C@H]1C[C@@H]1c1ccc(-c2cnc3nn(C(F)F)cc3c2)cc1)[C@H](Cc1cnn(C)c1)C(=O)NC(C)(C)Cn1nc(C(F)(F)F)cc1-c1ccc(=O)n(C)c1 [Example 88, (1S,2S)-2-(4-(2-(Difluoromethyl)-2H-pyrazolo[3,4-b]pyridin-5-yl)phenyl)-N-methyl-N-((R)-1-((2-methyl-1-(5-(1-methyl-6-oxo-1,6-dihydropyridin-3-yl)-3-(trifluoromethyl)-1H-pyrazol-1-yl)propan-2-yl)amino)-3-(1-methyl-1H-pyrazol-4-yl)-1-oxopropan-2-yl)cyclopropane-1-carboxamide] |
| 114% | 60.9 nM | Cc1cn2cc(-c3ccc([C@H]4C[C@@H]4C(=O)N(C)[C@H](Cc4cnn(C)c4)C(=O)NC(C)(C)Cn4nc(C(F)(F)F)cc4-c4ccc(=O)n(C)c4)cc3)cnc2n1 [Example 91, (1S,2S)-N-Methyl-N-((R)-1-((2-methyl-1-(5-(1-methyl-6-oxo-1,6-dihydropyridin-3-yl)-3-(trifluoromethyl)-1H-pyrazol-1-yl)propan-2-yl)amino)-3-(1-methyl-1H-pyrazol-4-yl)-1-oxopropan-2-yl)-2-(4-(2-methylimidazo[1,2-a]pyrimidin-6-yl)phenyl)cyclopropane-1-carboxamide] |
| 71.1 ± 9.09% | 52.7 nM | CC(C)(Cc1ccc(F)cc1)NC(=O)[C@@H](Cc1cnc2ncccn12)NC(=O)[C@H]1C[C@@H]1c1ccc(-c2cnc3nccn3c2)cc1 [Example 87, (1S,2S)-N-((R)-1-((1-(4-Fluorophenyl)-2-methylpropan-2-yl)amino)-3-(imidazo[1,2-a]pyrimidin-3-yl)-1-oxopropan-2-yl)-2-(4-(imidazo[1,2-a]pyrimidin-6-yl)phenyl)cyclopropane-1-carboxamide] |
| 90 ± 2.84% | 48.1 nM | Cn1cc(C[C@H](C(=O)NC(C)(C)Cn2nc(C(F)(F)F)cc2-c2cn[nH]n2)N2CC[C@@]3(C[C@@H]3c3ccc(-c4cnc5nn(C)cc5c4)cc3)C2=O)cn1 [Example 95, (R)—N-(1-(5-(2H-1,2,3-Triazol-4-yl)-3-(trifluoromethyl)-1H-pyrazol-1-yl)-2-methylpropan-2-yl)-3-(1-methyl-1H-pyrazol-4-yl)-2-((1R,3R)-1-(4-(2-methyl-2H-pyrazolo[3,4-b]pyridin-5-yl)phenyl)-4-oxo-5-azaspiro[2.4]heptan-5-yl)propanamide] |
| 96.6 ± 4.57% | 38.6 nM | Cn1cc(C[C@@H](NC(=O)[C@H]2C[C@@H]2c2ccc(NC(=O)Nc3ccc(F)cc3)cc2)C(=O)NC(C)(C)Cc2ccc(F)cc2)cn1 [Example 97, (1S,2S)-N—((R)-1-((1-(4-Fluorophenyl)-2-methylpropan-2-yl)amino)-3-(1-methyl-1H-pyrazol-4-yl)-1-oxopropan-2-yl)-2-(4-(3-(4-fluorophenyl)ureido)phenyl)cyclopropane-1-carboxamide] |
| 101% | 35.4 nM | Cc1ccc2cc(-c3ccc([C@H]4C[C@@H]4C(=O)N[C@H](Cc4cnn(C)c4)C(=O)NC(C)(C)Cn4nc(C(F)(F)F)cc4-c4cn[nH]n4)cc3)cnc2n1 [Example 94, (1S,2S)-N—((R)-1-((1-(5-(2H-1,2,3-Triazol-4-yl)-3-(trifluoromethyl)-1H-pyrazol-1-yl)-2-methylpropan-2-yl)amino)-3-(1-methyl-1H-pyrazol-4-yl)-1-oxopropan-2-yl)-2-(4-(7-methyl-1,8-naphthyridin-3-yl)phenyl)cyclopropane-1-carboxamide] |
| 115 ± 1.41% | 15.3 nM | Cn1cc(C[C@@H](NC(=O)[C@H]2C[C@@H]2c2ccc(-c3cnc4nn(C)cc4c3)cc2F)C(=O)NC(C)(C)Cn2nc(C(F)(F)F)cc2-c2cn[nH]n2)cn1 [Example 93, (1S,2S)-N—((R)-1-((1-(5-(2H-1,2,3-Triazol-4-yl)-3-(trifluoromethyl)-1H-pyrazol-1-yl)-2-methylpropan-2-yl)amino)-3-(1-methyl-1H-pyrazol-4-yl)-1-oxopropan-2-yl)-2-(2-fluoro-4-(2-methyl-2H-pyrazolo[3,4-b]pyridin-5-yl)phenyl)cyclopropane-1-carboxamide] |
